The nature of assay [1]: Binding affinity to Enterococcus faecalis ErmAM methyltransferase assessed as inhibition constant.
Assay [2] concerns the target T1, Catechol O-methyltransferase (Homo sapiens, UniProt P21964).
T1 sequence (P21964 whole entry): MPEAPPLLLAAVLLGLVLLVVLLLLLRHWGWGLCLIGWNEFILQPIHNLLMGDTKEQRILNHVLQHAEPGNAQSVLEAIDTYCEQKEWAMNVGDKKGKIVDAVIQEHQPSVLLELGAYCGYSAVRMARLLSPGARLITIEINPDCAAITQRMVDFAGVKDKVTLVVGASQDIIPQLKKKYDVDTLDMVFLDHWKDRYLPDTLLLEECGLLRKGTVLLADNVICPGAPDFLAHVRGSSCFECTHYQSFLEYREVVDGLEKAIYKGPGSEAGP
Briefly: Inhibition of S-COMT (unknown origin).

The target in assay [3] is rRNA adenine N-6-methyltransferase (Bacillus subtilis, UniProt P13956). Nature of the assay: Inhibition of Bacillus subtilis ErmC' methyltransferase.
The next assay has as its system Klebsiella aerogenes. Nature of the assay: Antibacterial activity against Enterobacter aerogenes ATCC 13048 assessed as reduction in bacterial growth. The assay is classed as functional.
Assay [4] relates to Escherichia coli. Nature of the assay: Antibacterial activity against Escherichia coli ATCC 8730 assessed as bacterial growth inhibition. The assay is classed as functional.
The next assay relates to Citrobacter amalonaticus. Briefly: Antibacterial activity against Citrobacter amalonaticus assessed as reduction in microbial growth. In kind it is functional.
The subject of the next assay is Klebsiella pneumoniae. Briefly: Antibacterial activity against Klebsiella pneumoniae ATCC 10031 assessed as reduction in microbial growth. The assay is classed as functional.
Another assay deals with Acinetobacter baumannii. Briefly: Antibacterial activity against Acinetobacter baumannii assessed as reduction in bacterial growth by broth microdilution method. The assay is classed as functional.
In the next assay the test system is Enterobacter cloacae. Nature of the assay: Antibacterial activity against Enterobacter cloacae ATCC 29893 assessed as reduction in microbial growth. The assay is classed as functional.
In assay [5] the test system is Escherichia coli. Briefly: Antimicrobial activity against Escherichia coli ATCC 8739 assessed as reduction in bacterial growth. The assay is classed as functional.
Assay [6] concerns Escherichia coli. Briefly: Antimicrobial activity against Escherichia coli ATCC 25922 assessed as bacterial growth inhibition. The assay is classed as functional.

Bounds are passed on as bounds.

Chain of rRNA adenine N-6-methyltransferase (P13956 whole entry): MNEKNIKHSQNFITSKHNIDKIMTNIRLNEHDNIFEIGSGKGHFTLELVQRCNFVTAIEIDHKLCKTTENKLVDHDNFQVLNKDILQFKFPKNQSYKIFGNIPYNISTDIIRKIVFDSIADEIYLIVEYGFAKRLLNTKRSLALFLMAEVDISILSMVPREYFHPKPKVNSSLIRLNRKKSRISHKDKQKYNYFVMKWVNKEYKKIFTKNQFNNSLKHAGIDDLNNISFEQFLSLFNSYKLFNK

As to `Nc1cccc(-c2nc(N)nc(NC3Cc4ccccc4C3)n2)c1`, in assay [1], the Ki was found to be 4 µM.

Compound `O=C(Nc1cccc(-c2nc3ccccc3[nH]2)c1)c1ccccc1` yielded an IC50 in assay [2] of 26 µM. Compound `COc1ccc(C(=O)Nc2cccc(-c3nc4ccccc4[nH]3)c2)cc1` displayed a 50% inhibitory concentration (IC50) in assay [2] of 73 µM. Consider `Nc1nc(NC2Cc3ccccc3C2)nc(N2CCC(C(=O)NCCc3c[nH]c4ccccc34)CC2)n1`, for which the Ki in assay [1] was determined as 2 µM. Take `Cc1ccc(Sc2cc(C)c(C#N)c(Sc3ccc(C)cc3)n2)cc1`: the IC50 in [3] was found to be 180 µM. For `O=C1c2ccccc2C(=O)N1CN(CCCn1ccnc1)CN1C(=O)c2ccccc2C1=O`, in [3], the IC50 came to 300 µM. The compound `O=C(c1c[nH]c(=O)[nH]1)N1CCN(c2ccc(C(F)(F)F)cn2)CC1` registered an IC50 in assay [3] of 100 µM. Still for that read-out and setting: in the case of `O=C(c1cnc(Nc2ncccn2)s1)N1CCN(c2ccc(C(F)(F)F)cn2)CC1` it was 110 µM; in that of `C(=N\Nc1ncnc2c1nnn2Cc1ccccc1)/c1ccccc1`, 250 µM.

`Cc1ccc(Nc2ncc(C(=O)N3CCN(c4ccc(C(F)(F)F)cn4)CC3)s2)nc1` showed an IC50 in assay [3] of 116 µM. On to `NCC[C@H](O)C(=O)N[C@@H]1C[C@H](N)[C@@H](O[C@H]2O[C@H](CN)[C@@H](O)[C@H](O)[C@H]2O)[C@H](O)[C@H]1O[C@H]1O[C@H](CO)[C@@H](O)[C@H](N)[C@H]1O` [AMIKACIN], for which the MIC in the assay on Klebsiella aerogenes is greater than 512 µg/mL; in the assay on Escherichia coli [4], greater than 512 µg/mL; in the assay on Citrobacter amalonaticus it was greater than 512 µg/mL; in the assay on Klebsiella pneumoniae it was greater than 512 µg/mL; in the assay with Acinetobacter baumannii it was greater than 256 µg/mL; in the assay with Enterobacter cloacae, greater than 512 µg/mL. Turning to `NC[C@@H]1O[C@H](O[C@H]2[C@@H](O)[C@H](O[C@@H]3[C@@H](O)[C@H](N)C[C@H](N)[C@H]3O[C@H]3O[C@H](CN)[C@@H](O)[C@H](O)[C@H]3N)O[C@@H]2CO)[C@H](N)[C@@H](O)[C@@H]1O` [FRAMYCETIN], the MIC in the assay on Escherichia coli [5] was greater than 256 µg/mL. For `NC[C@H]1O[C@H](O[C@H]2[C@H](O)[C@@H](O[C@H]3O[C@H](CO)[C@@H](O)[C@H](N)[C@H]3O)[C@H](N)C[C@@H]2N)[C@H](O)[C@@H](O)[C@@H]1O` [KANAMYCIN], the MIC in the assay with Escherichia coli [6] was greater than 256 µg/mL. As for `OC[C@H]1O[C@@H](n2cnc3c(NC4CCCC4)ncnc32)[C@H](O)[C@@H]1O` [N6-CYCLOPENTYLADENOSINE], the IC50 in [3] worked out at 80 µM. In the case of `NC[C@H]1O[C@H](O[C@H]2[C@H](O)[C@@H](O[C@H]3O[C@H](CO)[C@@H](O)[C@H](N)[C@H]3O)[C@H](N)C[C@@H]2N)[C@H](N)C[C@@H]1O` [TOBRAMYCIN], the MIC in the assay on Klebsiella aerogenes, with Escherichia coli [4], in the assay with Citrobacter amalonaticus, in the assay on Klebsiella pneumoniae and in the assay with Enterobacter cloacae was greater than 512 µg/mL in each case.

Take GENTAMICIN: the MIC with Klebsiella aerogenes was greater than 512 µg/mL; with Escherichia coli [4], greater than 512 µg/mL; in the assay on Escherichia coli [6], greater than 256 µg/mL; in the assay on Citrobacter amalonaticus it was greater than 512 µg/mL; with Klebsiella pneumoniae, greater than 512 µg/mL; in the assay with Enterobacter cloacae, greater than 512 µg/mL.

Values taken from ChEMBL document CHEMBL5257111, “Ribosome-targeting antibiotics and resistance via ribosomal RNA methylation” (RSC Med Chem, 2023).
